Test results as given in patent publication US4562207A, “Prostaglandin analogue” (Ono Pharmaceutical Co., Ltd., priority 1983, dated 1985).
≈ marks a conversion by molar mass, not a printed value. Read-outs that look alike come from different tables or passages of the source.

Assays:
[1] = tested on: platelet aggregation induced by adenosine-diphosphoric acid (ADP); test: inhibiting activity on platelet aggregation induced by ADP on human blood; type: cell-based; conditions: for IC50: read-out: IC50 (concentration which produces 50%-inhibition of platelet aggregation); for Relative activity against PGE1: relative to PGE1 (control) = 1.00, ADP-induced
Excerpt: The platelet aggregation was induced by adenosine-diphosphoric acid (ADP) on human blood. The IC50 values given in the Table are the concentrations which produce 50%-inhibition of platelet aggregation.
INHIBITING ACTIVITIES ON PLATELET AGGREGATION INDUCED BY ADP

[2] = tested on: carbon tetrachloride-induced liver damage; test: carbon tetrachloride-induced liver damage in rats; type: in vivo; conditions: oral, in comparison with controls
Method: The experiments were carried out by the methods described in Example 1 of the specification of published W. German Patent Application No. 3310556.1 and Japanese Patent Kokai No. 58-164512, except that carbon tetrachloride was used as a 10% solution in olive oil.

[3] = acute toxicity in mice by oral administration; conditions: mouse, in vivo
Method: For example, in a test of acute toxicity in mice by oral administration, the value of LD50 of 6-keto-16S,18S-ethano-20-ethyl-PGE1 for the compound of the present invention is very large; that is the value is more than […] animal body weight.

[4] = ADP-induced platelet aggregation, human blood

SMILES: CCCCC[C@H](O)/C=C/[C@H]1[C@H](O)CC(=O)[C@@H]1CCCCCCC(=O)O [PGE1, reference compound]
- IC50 [1, 4]: 34.5 ng/mL (≈ 97.3 nM)

SMILES: CCCCC1CCC([C@H](O)/C=C/[C@H]2[C@H](O)CC(=O)[C@@H]2CC(=O)CCCCC(=O)OC)C1 (some centres unmarked) [reference compound]
- IC50 [1, 4]: 3.6 ng/mL (≈ 8.25 nM)
- Relative activity against PGE1 ([1]; human blood): 9.58

SMILES: CCCC[C@H]1CC[C@H]([C@H](O)/C=C/[C@H]2[C@H](O)CC(=O)[C@@H]2CC(=O)CCCCC(=O)O)C1 [6-keto-16S,18S-ethano-20-ethyl-PGE1, 6,9-dioxo-11α,15α-dihydroxy-16S,18S-ethano-20-ethylprost-13E-enoic acid]
- IC50 ([1]; Homo sapiens, Platelet): 0.08 ng/mL (≈ 0.189 nM)
- activity as compared with the comparison compound (times as strong) ([1]; compared with compound of Example 2(d) of U.S. Pat. No. 4,278,688, platelet aggregation): about 45 times
- Relative activity against PGE1 ([1]; human blood): 431
- inhibition of plasma GOT (glutamic oxalacetic transaminase) ([2]; 20 μg/kg): 47%
- inhibition of plasma GPT (glutamic pyruvic transaminase) ([2]; 20 μg/kg): 42%
- inhibition of plasma GOT (glutamic oxalacetic transaminase) ([2]; 50 μg/kg): 64%
- inhibition of plasma GPT (glutamic pyruvic transaminase) ([2]; 50 μg/kg): 66%
- LD50 [3]: > 3 mg/kg
